Experiments:
NKL cell line = assay: Proliferation assay of NKL cell line (cell counts); format: cell-based; details: IL-2/-15/SPV-106 (5µM); already after 3 days of culture; counted at 3, 6 and 10 days; n = 7; figure 1
Method: (§1) NKL cell line was grown in Iscove's Modified Dulbecco's Medium (IMDM-Lonza) supplemented with 20% fetal bovine serum and recombinant human interleukine 2 (IL-2, 100 U/ml). Proliferation assay was performed by culturing 2x10^5 NKL cells/ml (96 multiwell; Nunc Thermo Scientific) in 200 µl growth medium supplemented with IL-2 (100 U/ml); IL-2/-15 (10 ng/ml); or IL-2/-15/SPV-106 5µM. Cells were counted and culture medium was changed every three days. Primary NK cells were isolated from peripheral blood of healthy donors using different methods of NK cell isolation (such as Easy Sep Human NK Cell Enrichment Kit, Stem cell Technologies or Human NK Cell Negative Selection Kit, Miltenyi). Proliferation assay was performed by culturing 2x10^6 primary NK cells/ml (24 multiwell ) in 1 ml growth medium supplemented with IL-2 (100 U/ml)/IL-15 (10 ng/ml); or IL-2/-15/SPV-106 5µM. Cells were counted and culture medium was changed every three days. Average of relative cell counts was determined microscopically using Trypan blue staining to exclude death or damaged cells.
NKL cells were cultured in growth medium for 10 days in presence of IL-2, IL-2/-15, or IL-2/-15/SPV-106 (5µM). SPV-106 is the selective activator of histone acetylase PCAF. At 3, 6 and 10 days cells were counted. Average cell number (x 10^4) is shown in the graph of figure 1 (n = 7 at each time point). […]

Primary NK cells [1] = assay: Proliferation assay of primary NK cells (relative cell counts, Trypan blue); format: cell-based, human; details: IL-2/-15/SPV-106 at 5 µM; after 10 days of culture; n = 3; figure 2
Method: as §1
Primary NK cells isolated from peripheral blood were cultured in growth medium for 10 days in presence of IL-2/-15, or IL-2/-15/SPV-106 (5µM). At 3, 6 and 10 days cells were counted. Average of relative cell counts in comparison of 100% at day 0 is shown in the graph of figure 2 (n = 3 at each time point).

Primary NK cells [2] = assay: NK cell subset distribution during expansion (flow cytometry); format: cell-based, human; details: IL-2/-15/SPV-106 at 5µM; 3, 6 and 10 days; n = 3; figure 3
Method: as §1
Primary NK cells were cultured in growth medium for 10 days in presence of IL-2/-15, IL 2/-15, or IL-2/-15/ SPV-106 (at 5µM). At 3, 6 and 10 the NK cell subset distribution (CD56^high : CD56^dim) was analysed by flow cytometry. Average of the NK cell subset ratio is shown in the graph of figure 3 (n = 3 at each time point).

K562 target cells = assay: Europium release cytotoxicity assay of expanded NK cells; format: cell-based, human; details: NK cells expanded by cytokines and 5µM SPV-106; E/T ratios 2.5:1, 5:1, 10:1; 4 h; figure 4
From the text: Effector cells were generated prepared as described above. As target cells, K562, a human chronic myelogenous leukemia cell line, […], were maintained in culture in RPMI 1640 medium supplemented with 10% fetal bovine serum. The medium was changed three times a week, and the cells were in the log phase of growth when used as targets in cytotoxicity assays. About 5 x10^6 target cells were washed in saline to reduce extracellular Ca^+2 content. The cell pellet was resuspended in 1 ml of labeling buffer supplemented with […] Eu(DH3C00)^3+, 100 mM DTPA, and 0.5 mg of dextran sulfate. This cell suspension was incubated for 20 min at room temperature with occasional shaking. The labeling process was stopped by the addition of […] of 100 mM CaCl2 solution per ml. After 5 min of continued incubation, the cells were washed three times in 30 ml of repair buffer and then one to two times in 10 ml of medium and were finally resuspended in CM at a concentration of 5 x 10^4 cells/ml. […] The percentage of specific cytotoxicity was calculated as follows: ((experimental release (counts)-spontaneous release (counts)) : (maximal release (counts)-spontaneous release (counts)) x 100.
Killing activity of K562 target cells was assessed by Europium Assay as described in the following Material and Methods section.

## CCCCCCCCCCCCCCC=C(C(=O)OCC)C(=O)OCC [SPV-106]
NKL cell line
  NKL cell line proliferation (average cell number): enhances NKL cell line proliferation
Primary NK cells [1]
  primary NK cell proliferation (average of relative cell counts in comparison of 100% at day 0): enhances primary NK cell proliferation
Primary NK cells [2]
  NK cell subset distribution (CD56^high : CD56^dim): did not change the naturally occurring NK subset distribution
K562 target cells
  cytotoxic capacity (killing activity of K562 target cells): retained cytotoxic capacity

From EP2982745A1, “Method for expanding immune cells” (Johann Wolfgang Goethe-Universität, Frankfurt am Main, priority 2014, dated 2016)
